{
  "source": "patent US20010010919A1",
  "about": "(priority 1998, published 2001)",
  "key": {"[1]": {"target": "T1, novel mammalian opioid receptor (LC132, OFQR) (Rattus norvegicus, UniProt P35370)", "T1 construct": "The entire coding region of the receptor cDNA insert was subcloned into the RcRVS vector; expressed in transfected cells", "T1 sequence (P35370 whole entry)": "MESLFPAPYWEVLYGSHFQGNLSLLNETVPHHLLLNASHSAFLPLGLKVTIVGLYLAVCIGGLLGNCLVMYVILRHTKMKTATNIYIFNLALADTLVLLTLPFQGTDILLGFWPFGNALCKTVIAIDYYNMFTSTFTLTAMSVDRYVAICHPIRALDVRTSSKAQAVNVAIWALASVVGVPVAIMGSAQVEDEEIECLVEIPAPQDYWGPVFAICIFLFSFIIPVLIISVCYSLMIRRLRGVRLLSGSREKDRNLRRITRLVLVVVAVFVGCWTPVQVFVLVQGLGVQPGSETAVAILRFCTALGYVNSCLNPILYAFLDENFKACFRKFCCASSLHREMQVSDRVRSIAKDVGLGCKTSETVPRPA", "assay_type": "binding"}, "mice [2]": {"test_system": "mice", "test": "Open-field observation and locomotor activity after icv administration", "assay_type": "in vivo, mouse", "protocol": "For these experiments, the peptide was administered intracerebroventricularly (icv) and intrathecally (it) in mice. Immediately after peptide administration, mice were placed in transparent boxes in groups of three, and behavioral signs recorded. Emphasis was placed on signs indicative of depressant, stimulant and autonomic effects of the peptide (as described by Irwin, 1968, Psychopharmacologia 13: 222). […] The effects of the peptide on horizontal and vertical locomotor activity was measured using Digiscan Animal Activity Monitors (Omnitech, Columbus, Ohio). The values for horizontal and vertical locomotor activity represent the total number of interruptions of the horizontal and vertical sensors during the first 10 minutes following administration of the peptide. Data are shown as the mean±standard error of the mean."}, "mice [3]": {"test_system": "mice", "test": "Nociception in mice (hot plate, toe- and tail-pinch) after icv or intrathecal administration", "assay_type": "in vivo, mouse"}, "Swiss-Webster mice [4]": {"test_system": "Swiss-Webster mice", "test": "Tail-withdrawal (TW) test 46° C., stress-induced analgesia", "assay_type": "in vivo, mouse", "conditions": "for hyperalgesia: 46° C. TW test; for effect on the 4 s post-injection increase in TW latency (stress-induced analgesia): OFQ 10 nmole icv, naloxone 1 mg/kg sc", "protocol": "The latency to respond to the heat stimulus by a vigorous flexion of the tail was measured to the nearest 0.1 s by an experienced observer blind to the drug condition of the animal. Mice were lightly restrained in a cloth/cardboard holder during testing. In the absence of a withdrawal reflex or other indication of distress, the tail was removed from the water after a cut-off latency of 15 s. To improve accuracy, three separate TW latency determinations, separated by 20 s, were made and averaged at each test. […] Because there were no changes in post-injection TW latencies in any group with repeated testing at 10, 20 and 30 min post-injection, data from these time points were pooled."}, "mice [5]": {"test_system": "mice", "test": "Acetic acid abdominal constriction (AC, writhing) test", "assay_type": "in vivo, mouse", "conditions": "for effect on SIA (decreased number of abdominal constrictions): OFQ 2.5 nmole icv, NAL sc", "protocol": "This test is an extremely sensitive measure of tonic, chemically-induced pain stimulus.\nThe AC assay was a modification of the technique originally described by Koster et al. Mice (N=9-15 per group) were acclimated to individual cylindrical Plexiglass observation chambers for >30 minutes. […] A separate group of Sal-treated mice received no icv injection (None). Between 5 and 10 minutes later, all mice were given an intraperitoneal (ip) injection of 0.9% acetic acid and placed back in their observation chambers. For the next 30 minutes, the number of abdominal constrictions (lengthwise stretches of the torso with a concomitant concave arching of the back) were counted and recorded. Four mice in separate chambers were observed simultaneously by a single experimenter blind to drug condition."}, "Swiss-Webster mice [6]": {"test_system": "Swiss-Webster mice", "test": "Reversal of morphine analgesia, 49° C. TW test", "assay_type": "in vivo, mouse"}, "C57BL/6J mice": {"test_system": "C57BL/6J mice", "test": "Precipitation of withdrawal in morphine dependent mice (withdrawal jumping)", "assay_type": "in vivo, mouse"}, "[7]": {"conditions": "Meunier et al., Nature 377,532-535 (1995); cited from earlier work"}, "DBA/2J mice": {"test_system": "DBA/2J mice", "test": "Morphine hypothermia and Straub tail, core body temperature"}, "[8]": {"test_system": "untransfected COS-7 and Ltk^− cells", "test": "Radioligand binding to membranes of untransfected cells (control)", "conditions": "untransfected cell membranes"}},
  "note": "Entries after “also recorded” stand apart in the source; their conditions may differ.",
  "data": [
    {"molecule": "C[C@@H](NC(=O)[C@@H](N)Cc1ccc(O)cc1)C(=O)NCC(=O)N(C)[C@@H](Cc1ccccc1)C(=O)NCCO", "note": "[DAMGO, Tyr-DAla-Gly-Met-Phe-Gly-ol]", "values": [
      {"measurement": "specific binding of the radioactively-labeled ligand", "setting": "[1]", "result": "no specific binding"}
    ]},
    {"molecule": "CC(C)C[C@H](NC(=O)[C@H](CCCCN)NC(=O)[C@H](CCCNC(=N)N)NC(=O)[C@H](C)NC(=O)[C@H](CO)NC(=O)[C@H](CCCCN)NC(=O)[C@H](CCCNC(=N)N)NC(=O)[C@H](C)NC(=O)CNC(=O)[C@@H](NC(=O)[C@H](Cc1ccccc1)NC(=O)CNC(=O)CNC(=O)[C@@H](N)Cc1ccccc1)[C@@H](C)O)C(=O)N[C@@H](C)C(=O)N[C@@H](CC(N)=O)C(=O)N[C@@H](CCC(N)=O)C(=O)O", "note": "[OFQ]", "values": [
      {"measurement": "horizontal and vertical locomotion", "setting": "mice [2]; icv 0.1-10 nmole/2 μL/mouse, first 10 minutes", "result": "decrease of both horizontal and vertical locomotion"},
      {"measurement": "open-field behavioral signs", "setting": "mice [2]; larger doses, above 1 nmole/2 μL/mouse", "result": "profound influence on locomotor activity, as well as a decrease in muscle tone, a loss of righting reflex, and ataxia"},
      {"measurement": "toe- and tail-pinch reflexes", "setting": "mice [3]; all doses tested", "result": "normal toe- and tail-pinch reflexes"},
      {"measurement": "analgesic effect in hot plate test", "setting": "mice [3]; icv, hot plate 58° C., cutoff 60 sec", "result": "little analgesic effect"},
      {"measurement": "analgesic effect, intrathecal", "setting": "mice [3]; intrathecally 2.5-10 nmole/4 μL/animal", "result": "No analgesic effect"},
      {"measurement": "hyperalgesia", "setting": "Swiss-Webster mice [4]", "result": "no evidence of hyperalgesia"},
      {"measurement": "effect on the 4 s post-injection increase in TW latency (stress-induced analgesia)", "setting": "Swiss-Webster mice [4]", "result": "attenuated"},
      {"measurement": "inhibition of the analgesic effect of morphine", "setting": "mice [5]; 2.5 nmole icv, within 30 minutes", "result": "pharmaceutically sufficient to inhibit the analgesic effect of morphine"},
      {"measurement": "effect on SIA (decreased number of abdominal constrictions)", "setting": "mice [5]", "result": "reversed"},
      {"measurement": "reversal of morphine analgesia", "setting": "Swiss-Webster mice [6]; OFQ 2.5-25 nmole i.c.v.", "result": "reversed this analgesia in a dose-dependent manner"},
      {"measurement": "ED50, 50% inhibition of 5 mg/kg morphine analgesia", "setting": "Swiss-Webster mice [6]; i.c.v. in a 2.5 μl volume, linear regression", "result": 7.5, "unit": "nmol"},
      {"measurement": "precipitated withdrawal syndrome (withdrawal jumping)", "setting": "C57BL/6J mice; OFQ 0.1-10 nmole i.c.v., 20-min testing period", "result": "equally effective in the precipitation of withdrawal; also recorded: unequivocal, albeit modest in comparison to that produced by systemic naloxone"},
      {"measurement": "other withdrawal symptoms", "setting": "C57BL/6J mice; OFQ i.c.v.", "result": "wet-dog shakes and ptosis, were observed"},
      {"measurement": "effect on pain sensitivity in tail flick and hot-plate assays", "setting": "[7]", "result": "induces hyperalgesia"},
      {"measurement": "reversal of 20 mg/kg MOR hypothermia", "setting": "DBA/2J mice; 5 and 10 nmole i.c.v., 60-90 minutes post-MOR injection", "result": "significantly reversed"},
      {"measurement": "effect of the substance itself on body temperature", "setting": "DBA/2J mice; 5 or 10 nmole i.c.v.", "result": "did not affect body temperature"},
      {"measurement": "elimination of morphine Straub tail", "setting": "DBA/2J mice; at least 5 nmole OFQ icv", "result": "effectively eliminated Straub tail in the vast majority of animals"},
      {"measurement": "time to elimination of Straub tail following icv injection", "setting": "DBA/2J mice; at least 5 nmole OFQ icv", "result": "1 to 2", "unit": "min"}
    ]},
    {"molecule": "CCC12CCN(CC3(O)CC3)C(Cc3ccc(O)cc31)C2(C)C", "note": "(centres unmarked) [bremacozine]", "values": [
      {"measurement": "specific binding of the radioactively-labeled ligand", "setting": "[1]", "result": "no specific binding"}
    ]},
    {"molecule": "CN1CC[C@]23c4c5ccc(O)c4O[C@H]2[C@@H](O)CC[C@H]3[C@H]1C5", "note": "[dihydromorphine]", "values": [
      {"measurement": "specific binding of the radioactively-labeled ligand", "setting": "[1]", "result": "no specific binding"}
    ]},
    {"molecule": "CCC(=O)C(CC(C)N(C)C)(c1ccccc1)c1ccccc1", "note": "(centres unmarked) [methadone]", "values": [
      {"measurement": "Bmax", "setting": "[1]", "result": "400-450 fentomoles/μg protein"},
      {"measurement": "specific binding of the radioactively-labeled ligand", "setting": "[1]", "result": "specific binding was found"},
      {"measurement": "endogenous binding of the radiolabeled ligand", "setting": "[8]", "result": "no or negligible amounts of endogenous methadone binding"}
    ]},
    {"molecule": "CN1CC[C@]23c4c5ccc(O)c4O[C@H]2[C@@H](O)C=C[C@H]3[C@H]1C5", "note": "[morphine]", "values": [
      {"measurement": "analgesia produced", "setting": "Swiss-Webster mice [6]; morphine sulfate 5 mg/kg s.c.", "result": "profound analgesia"},
      {"measurement": "duration of analgesia", "setting": "Swiss-Webster mice [6]; morphine sulfate 5 mg/kg s.c.", "result": "about 2 hours"},
      {"measurement": "time of peak analgesia post-injection", "setting": "Swiss-Webster mice [6]; morphine sulfate 5 mg/kg s.c.", "result": 30, "unit": "min"},
      {"measurement": "Straub tail production", "setting": "DBA/2J mice; morphine 20 mg/kg", "result": "produced Straub tail"},
      {"measurement": "decrease in body temperature", "setting": "DBA/2J mice; morphine 20 mg/kg i.p.", "result": 6, "unit": "°C"}
    ]},
    {"molecule": "C=CCN1CC[C@]23c4c5ccc(O)c4O[C@H]2C(=O)CC[C@@]3(O)[C@H]1C5", "note": "[naloxone, reference compound]", "values": [
      {"measurement": "endogenous binding of the radiolabeled ligand", "setting": "[8]", "result": "endogenous low levels of specific"},
      {"measurement": "hyperalgesia", "setting": "Swiss-Webster mice [4]", "result": "In no case did any mouse treated with OFQ or naloxone exhibit hyperalgesia"},
      {"measurement": "effect on the 4 s post-injection increase in TW latency (stress-induced analgesia)", "setting": "Swiss-Webster mice [4]", "result": "attenuated"},
      {"measurement": "effect on SIA (decreased number of abdominal constrictions)", "setting": "mice [5]", "result": "reversed"}
    ]},
    {"molecule": "c[D-penicillamine^2, D-penicillamine^5]enkephalin [DPDPE]", "values": [
      {"measurement": "specific binding of the radioactively-labeled ligand", "setting": "[1]", "result": "no specific binding"}
    ]},
    {"molecule": "β-endorphin: endogenous opioid peptide, 125I-labeled", "values": [
      {"measurement": "specific binding of the radioactively-labeled ligand", "setting": "[1]", "result": "no specific binding"}
    ]}
  ]
}
